The values that follow come from patent US5482954A, “Signal transduction inhibitor triazole and diazole compounds” (priority 1994, dated 1996).

Assay [1] relates to A2058 cells. Description: Proliferation of A2058 cells (monolayer growth, crystal violet). The class given is cell-based, human. The following applies: Homo sapiens, A2058; Table H; 10 μM, 96 hr; read-out: GROWTH (% OF CONTROL). The method, then:
For the clonogenic assay, aliquots of 50,000 cells per well (24 well plates) were grown under standard tissue culture conditions in the presence of increasing doses or test compound (0-10 μg/mL) or vehicle control. After 96 hr, the cells were gently washed with PBS, fixed, and stained with 0.5% crystal violet nuclear stain in 20% methanol. Excess stain was removed with tap water and bound stain was eluted with an equal volume solution of 01N sodium citrate (pH 4.2) and absolute ethanol. Optical density (O.D.) of eluted crystal violet stain was determined at 540 nm. The results of dose-dependent inhibition of tumor cell proliferation by compound 1 are shown in FIG. 5, in which the data are expressed as percent of untreated control cell proliferation for each cell type. The degree of inhibition varied with the cell type and was maximal (76%) for the A2058 cell line.
A2058 human melanoma cells were used to test the effect of compounds 1 and 3-25 on cellular proliferation. The cells were cultured in the presence of the test compounds (10 μM) for 96 hr. fixed and stained with crystal violet as described above. Growth inhibition was determined as a percent of control growth (using either DMSO or PEG-400 as the vehicle) for each compound. Each experiment was run a minimum of three times and the average of the results for each compound is provided in Table H and in FIGS. 20A and 20B.

For assay [2], the system named is 5R ras-transfected rat embryo fibroblast cell line. Description: Experimental pulmonary metastasis, tumor cells pretreated in vitro. The assay is classed as in vivo, nude mice. The note with it: cells treated overnight, 1-10 μM; 10 d. The method, then: This example illustrates the effect of selected compounds on the development of experimental pulmonary metastases, when the tumor cells are first incubated with the compound in vitro and subsequently injected into the tail vein of nude mice. In this example, both the 5R ras-transfected rat embryo fibroblast cell line and the HT-29 human colon cancer cell line were evaluated.
The 5R ras-transfected rat embryo fibroblast cell line forms confluent pulmonary metastases within 2-3 weeks after inoculation. For the experimental metastasis assay, 5R cells were treated in culture overnight with the test compounds (1-10 μM). After culture, the cells were harvested, washed and injected into the tail vein of six-week old nude mice. After 10 d, the mice were humanely sacrificed and the lungs were removed and fixed in Bouin's solution. The visible pulmonary metastases were counted.

In assay [3] the test system is A2058 cells. Briefly: Ca2+ influx (receptor-operated). The class given is cell-based, human. The method, then: (§1) Calcium influx was determined using two methods. The first method involved the use of ^45 Ca^2+, while the second method utilized a fluorescent intracellular calcium chelator, Fura-2. The method using Fura-2 is semi-quantitative and is preferred for kinetic analysis and screening whereas the ^45 Ca^2+ method is quantitative.
Additionally, CHOm5 cells and A2058-1F5 human melanoma cells adherent to glass coverslips, which had been precoated with collagen or poly-L lysine to promote adhesion, were loaded with the fluorescent intracellular calcium chelator, fura-2AM. This chelator penetrates cells where it is hydrolyzed to fura-2 which remains trapped in the cells. Excess fura-2AM is washed off the cells. Cells are studied in serum-free E2 media, containing known amounts of calcium and magnesium. The cells are subjected to treatment with carbachol (10 μM) with or without compounds 1 and 2, and with appropriate vehicle controls (DMSO or PEG-400) in a perifusion apparatus. This ligand is known to stimulate intracellular release of calcium and influx of extracellular calcium. Emitted light is measured at 510 nm after excitation at 340 and 380 nm, with the ratio of fluorescence of fura-2 being directly correlated with intracellular calcium concentrations.
Stimulated uptake of radiolabelled calcium was measured as described above. […]

For assay [4], the system named is CHOm5 cells. Description: Carbachol-stimulated 45Ca2+ influx. The class given is cell-based, Chinese hamster. The arrangement: % Inhibition of 45Ca2+ Influx into CHOm5 Cells: concentration or dose not given beside the values. The note with it: Table I; carbachol-stimulated. The method, then:
as §1
CHOm5 cells in monolayer culture were washed free of serum-containing media and incubated with either carbachol or the calcium ionophore A23187 (from Molecular Probes, Eugene, Oreg., USA) in the presence of ^45 Ca^2+ and defined buffer (E2 medium with 0.1 mM MgCl2 and 1.0 mM CaCl2). After incubation for 5 min, the radioactive buffer was rapidly and repeatedly washed off with media containing LaCl3, a competitor of calcium efflux. The cell monolayer was solubilized and the calcium uptake was determined by scintillation counting.
Stimulated uptake of radiolabelled calcium was measured as described above. The abbreviations CTL and CC are control and carbachol-stimulated calcium influx values. respectively.

In assay [5] the test system is signal transduction and tumor growth. Description: Biological and biochemical assays, summary. The following applies: summary of all assays. The class given is cell-based. The text has this:
Compound 1 was inhibitory for the biological and biochemical assays.

In assay [6] the test system is CHOm5 cells. Briefly: Carbachol-stimulated arachidonic acid release. The assay is classed as cell-based, Chinese hamster. The following applies: Table K. An excerpt:
This example illustrates the effect of selected compounds on the release of arachidonic acid from carbachol-stimulated CHOm5 cells. Carbachol is a muscarinic agonist which in the muscarinic receptor transfected CHO cells stimulates the activation of phospholipase A2, resulting in arachidonic acid release and metabolism. Downstream metabolites of arachidonic acid, prostaglandins and leukotrienes are also second messengers.
The effect of compound 1 on arachidonic acid release from CHOm5 cells was determined by incubating the cells to isotopic equilibrium with labelled arachidonic acid, then washing the cells twice with 1 mL of serum-free media supplemented with 20 mM HEPES and 0.2% bovine serum albumin (fatty acid free) to trap the unincorporated labelled arachidonic acid, and then simultaneously adding carbachol (100 μM) and increasing concentrations of 1. After 15 min, the reaction was stopped by removing the incubation media which was then centrifuged at 10,000×g to eliminate any nonadherent cells.

Assay [7] relates to A2058 cells. Briefly: Colony formation (soft agar). The assay is classed as cell-based, human. The method, then: Colony formation: Compound 1 was evaluated at three concentrations for inhibition of colony formation in both the A2058 and OVCAR3 cell lines. Colony number was determined in triplicate and compared to the vehicle control run on each 24 well plate to provide a percent. Colonies greater than 60 cells were counted at 100× under phase contrast. […] In a second study, selected compounds were evaluated for their effect on density-independent growth of the A2058 cell line in soft agar. Percent inhibition was determined over triplicate experiments involving three log molar concentrations of the test compound.

The subject of assay [8] is production of PGE2 and PGF2a. The following applies: Honn, et al.; cited from earlier work.

Structures are written as SMILES.

Regarding `NC(=O)c1nnn(Cc2ccc(C(=O)c3ccccc3)cc2)c1N` [Compound 8], the activity at 10 µM in the assay on A2058 cells [1] amounted to 92.7 ± 9%. In addition, in assay [2], the “inhibition of pulmonary colonization” value turned out to be 14%. The “inhibition of stimulated changes in intracellular calcium” value in the assay with A2058 cells [3] is “failed to inhibit”. In addition, in the assay with CHOm5 cells [4], the “% Inhibition of 45Ca2+ Influx into CHOm5 Cells” value amounted to 0%. Besides, in assay [5], the “inhibition in the biological and biochemical assays” value is given as “did not inhibit any of the test assays”. Further, the “Arachidonic Acid Release (% of Control)” value with CHOm5 cells [6] is listed as 100 ± 15 % of Control. Moreover, the “COLONY FORMATION (% OF CONTROL)” value in the assay with A2058 cells [7] (Table H, soft agar) worked out at 93.4 ± 3 % OF CONTROL. For the same compound, the “Colony Formation (% of Control)” value with A2058 cells [7] (Table K) is 93.4 ± 3 % of Control.
Take `COc1ccc2c(c1)c(CC(=O)O)c(C)n2C(=O)c1ccc(Cl)cc1` [indomethacin]: in assay [8], the “inhibition of phorbol ester-stimulated production of PGE2 and PGF2a” value is “selectively inhibited”.
